These results are taken from US6642264B1, “Thiazolobenzoimidazole derivatives” (Yamanouchi Pharmaceutical Co., Ltd., priority 1999, dated 2003).

Test [1] has as its target T1, mGluR1 (Rattus norvegicus, UniProt P23385).
T1 construct: from tissue; host or cells: rat (Wistar) cerebellum P2 membrane fraction
Kind of test: mGluR1 binding test with tritium-labeled ligand on rat cerebellum P2 membrane fraction. As to the method:
Rats (Wistar, males, 9 to 12 weeks of age) were decapitated to excise cerebella. After weight measurement, they were homogenized in 7 to 10 volumes of 0.32 M sucrose solution. After 15 minutes of centrifugation at 900×g, the supernatant was preserved in a container (in ice). The precipitate was again homogenized in 0.32 M sucrose solution of the same volume of the first time and centrifuged at 900×g for 15 minutes. The supernatant obtained this time was combined with the previously obtained supernatant and centrifuged at 15,000×g for 20 minutes. The precipitate was homogenized in 5 mM Tris-HCl, pH 7.4, and centrifuged at 15,000×g for 15 minutes. This step was repeated again. The precipitate was homogenized in 50 mM Tris-HCl, pH 7.4, and centrifuged at 15,000×g for 15 minutes. The precipitate was homogenized in an appropriate amount of 50 mM Tris-HCl, pH 7.4, subdivided into small portions and then preserved at −80° C.
The binding test was carried out by the following modified method of Thomsen et al.
As the assay buffer, 50 mM Tris-HCl, 2.5 mM CaCl2, pH 7.4, was used. […] Quantity of the radioactivity was measured using a liquid scintillation counter. […]

Test [2] concerns the target T2, mGluR1 α (Rattus norvegicus, UniProt P23385).
T2 construct: expressed in transfected cells
Nature of the test: phosphatidylinositol (PI) hydrolysis system using mGluR1 α expression cells. The test is classed as cell-based. Particulars: read-out: IC50, inhibition of the reaction of glutamic acid in PI hydrolysis system.

Structures can show the parent of a compound that is named as a salt.

By IC50 is commonly meant the concentration at which inhibition is half-maximal.

T1 sequence (P23385 19-1199): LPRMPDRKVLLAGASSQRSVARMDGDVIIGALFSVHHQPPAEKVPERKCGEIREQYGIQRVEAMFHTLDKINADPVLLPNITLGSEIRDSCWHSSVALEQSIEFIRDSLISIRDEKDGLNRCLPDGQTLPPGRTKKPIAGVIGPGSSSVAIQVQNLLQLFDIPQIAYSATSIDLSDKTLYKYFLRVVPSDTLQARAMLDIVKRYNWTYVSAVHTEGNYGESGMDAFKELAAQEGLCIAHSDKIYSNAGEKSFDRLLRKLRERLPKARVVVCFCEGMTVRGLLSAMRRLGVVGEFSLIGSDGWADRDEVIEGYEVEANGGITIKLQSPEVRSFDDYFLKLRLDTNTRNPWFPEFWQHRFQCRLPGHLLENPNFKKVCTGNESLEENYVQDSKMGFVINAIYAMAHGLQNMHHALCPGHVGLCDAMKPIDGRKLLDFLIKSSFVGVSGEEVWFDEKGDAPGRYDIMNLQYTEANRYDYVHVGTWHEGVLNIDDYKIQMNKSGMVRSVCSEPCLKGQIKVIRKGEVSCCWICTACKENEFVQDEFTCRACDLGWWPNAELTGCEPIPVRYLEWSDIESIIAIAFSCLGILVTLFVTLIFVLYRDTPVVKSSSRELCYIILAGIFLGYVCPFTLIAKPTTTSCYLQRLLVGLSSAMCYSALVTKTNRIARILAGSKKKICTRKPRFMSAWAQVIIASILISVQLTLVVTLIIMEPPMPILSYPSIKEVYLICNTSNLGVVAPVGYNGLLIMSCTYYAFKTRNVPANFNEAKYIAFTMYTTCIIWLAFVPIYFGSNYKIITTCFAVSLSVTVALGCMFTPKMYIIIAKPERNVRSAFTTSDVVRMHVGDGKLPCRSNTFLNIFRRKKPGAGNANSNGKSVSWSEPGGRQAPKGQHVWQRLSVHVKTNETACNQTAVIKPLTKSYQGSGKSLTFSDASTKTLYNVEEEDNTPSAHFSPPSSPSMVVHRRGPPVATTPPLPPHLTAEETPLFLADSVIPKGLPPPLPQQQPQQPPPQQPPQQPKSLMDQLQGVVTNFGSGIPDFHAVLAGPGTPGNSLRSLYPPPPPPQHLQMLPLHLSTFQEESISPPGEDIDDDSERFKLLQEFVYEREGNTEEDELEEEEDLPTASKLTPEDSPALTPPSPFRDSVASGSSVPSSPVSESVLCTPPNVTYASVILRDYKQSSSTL
T2 sequence (P23385 19-1199): as above

For `[3H]C([3H])([3H])N(C(=O)c1sc2nc3ccc(N)cc3n2c1C)C1CCCCC1` [[^3H]-6-Amino-N-cyclohexyl-N,3-dimethylthiazolo[3,2-a]benzoimidazole-2-carboxamide], the “Bmax in the saturation test” value in test [1] was 3.9 pmol/mg protein. Also, the Kd in test [1] (room temperature, 45 minutes, read-out: KD value in the saturation test) worked out at 0.047 µM.

On to `CN(C(=O)c1cn2c(nc3ccc(NC(=O)CN)cc32)s1)C1CCCCC1` [Example 41, N-Cyclohexyl-6-glycylamino-N-methylthiazolo[3,2-a]benzoimidazole-2-carboxamide dihydrochloride], for which the IC50 in test [2] amounted to 0.02 µM.
